Consider 96 compounds from ChEMBL document CHEMBL3507680, “University of Dundee, Gates Library screen for HepG2 cell viability”.

The nature of this series: Human HepG2 cell viability assay in 384 well format. In kind it is toxicity, cell-based. Further details: dose 125 nL, time 70.5 hour; concentration not given beside the values. To be noted: HepG2 cells, read-out: Inhibition.

`Cc1ccc(S(=O)(=O)NC(=O)c2c(C)noc2C(C)C)cc1C`: the cytotoxicity at 70.5 h stood at 0.282%.
For the compound `Cc1cc(C2CCCN(C(=O)c3c(C)noc3C)C2)n[nH]1` (stereo unspecified), the cytotoxicity at 70.5 h is -5.28%.
To `CC(NC(=O)c1nc(=O)[nH][nH]1)c1ccc(OCC2CC2)c(F)c1` (stereo unspecified) belongs 29.1%; to `COCCn1ccc(NC(=O)Nc2ccc(C(N)=O)c(F)c2)n1`, 13.6%.
Then `COCC(=O)N(C)Cc1cccc(Cl)c1`, with 38.1%.
To `CN1N=C(C(=O)N(Cc2ccco2)C2CC2)CCC1=O` belongs -9.82%; to `CCOc1nnc(CN(C)C2CCCN(c3cccnn3)C2)s1` (stereo unspecified), 3.52%.
For `CC1CN(CC(=O)NC(=O)NCc2ccccc2)CCO1` (stereo unspecified), the cytotoxicity at 70.5 h is 7.19%.
As to `CC(COc1ccc(F)cc1F)NC(=O)NCCN1CCOCC1` (stereo unspecified), the cytotoxicity at 70.5 h was -16%.
Then `CCc1noc(C(C)N2CCN(c3ccc(C#N)cc3F)CC2)n1` (stereo unspecified), with -24.4%; and `Cc1cc(N2CCN(CC(=O)N(C)C)CC2)nc(-c2ccncc2)n1`, with 27.8%.
Turning to `NC(=O)C(CNC(=O)Cc1ccc(F)cc1)Cc1ccc(F)cc1` (stereo unspecified), the cytotoxicity at 70.5 h was -7.46%.
As for `CCn1cnnc1C1CCN(C(=O)c2ccc3cc[nH]c3c2)CC1`, the cytotoxicity at 70.5 h was 5.48%.
To `Cc1cc(N2CCN(CCO)CC2)nc(-c2ccncc2)n1` belongs 0.374%; to `CC(C)NC(=O)Nc1ccc(CS(=O)(=O)C(C)(C)C)cc1`, -12.3%.
To `CCOC(=O)c1c(NC(=O)CN2CCN(C(C)=O)CC2)sc2c1CCC2` belongs -0.965%; to `CCc1nc2n(n1)CC(NCc1nc(C)ccc1O)CC2` (stereo unspecified), -8.85%; to `Cc1ccc(CC2CCCN2CC(=O)NCc2ccccn2)cc1` (stereo unspecified), 15.4%.
To `CCOc1cccc(C(=O)NCCC(=O)Nc2ccncc2)c1` belongs -19.4%.
As for `CC(C)Cc1cc(C(=O)NCc2nnc[nH]2)[nH]n1`, the cytotoxicity at 70.5 h was -13.4%.
Take `Cc1cc(C(=O)N2CCCC(n3ccnc3C)C2)c(C)s1` (stereo unspecified): the cytotoxicity at 70.5 h was -11.2%.
Then `CC(C)c1nc2n(n1)CC(NCc1ccncc1)CC2` (stereo unspecified), with -16.7%; and `CCc1cnc(CN(C)C2CCN(CCc3ccccn3)C2)o1` (stereo unspecified), with 10.2%; and `CN(C)C(C)(C)CNC(=O)C(C)(C)c1ccccc1F`, with 4.83%.
Then `Cc1nc(CN2CCCC(N(C)CCc3cccs3)C2)no1` (stereo unspecified), with 8.18%; and `COc1ccc(CNC(=O)C2(C#N)CCCC2)cc1`, with 12.6%.
Then `CN(CCCC#N)C1CCCN(Cc2noc(C3CC3)n2)C1` (stereo unspecified), with 9.15%.
For the compound `COCCN1C(=O)CC(N2CCN(c3ccc(OC)cc3)CC2)C1=O` (stereo unspecified), the cytotoxicity at 70.5 h is -7.1%.
`COc1ccc(C2CCCCCN2S(=O)(=O)N(C)C)cc1` (stereo unspecified): the cytotoxicity at 70.5 h was -7.96%.
Then `COc1cc(CN(C)C(=O)Cc2c(C)nn(C)c2C)ccc1OC(F)F`, with 3.07%.
Then `CN1CCN(CCCNC(=O)c2cc(Cl)c3c(c2)OCO3)CC1`, with -6.03%; and `O=C(Nc1cccc(CN2CCOC2=O)c1)N1CCSCC1`, with -10.5%.
To `CC(C)NC(=O)c1nnn(-c2cccc(C(F)(F)F)c2)c1C1CC1` belongs 10.4%; to `CC1CCCN(CCNC(=O)c2cncnc2C(C)C)C1` (stereo unspecified), -4.07%; to `CN(C)C(=O)c1cccc(NC(=O)N(CCO)Cc2ccsc2)c1`, -4.45%.
Take `CC(C)CN1CCC(NC(=O)c2ccc(F)cc2I)CC1`: the cytotoxicity at 70.5 h is 11.3%.
In the case of `CCCN(CC(=O)NC)C(=O)c1ccc(-c2ccsc2)nc1C`, the cytotoxicity at 70.5 h is -4.88%.
On to `COc1ccc(CNC(=O)NC2CCC(O)CC2)c(C(F)(F)F)c1` (stereo unspecified), for which the cytotoxicity at 70.5 h is -4.62%.
Then `COc1ccc(CNC(=O)NCC2CCOC2)c(C(F)(F)F)c1` (stereo unspecified), with -2.53%.
Then `Cc1nc(C)n(CC2CN(CC(=O)Nc3cccnc3)CCO2)n1` (stereo unspecified), with -2.68%; and `O=C(CCc1cscn1)NS(=O)(=O)c1ccc2c(c1)CCC2`, with 8.97%; and `CCc1cnc(CN(C)C2CCN(CCS(C)(=O)=O)C2)o1` (stereo unspecified), with -6.45%.
To `N#CC1(C(=O)Nc2ccc(OC(F)F)cc2)CCCC1` belongs 8%; to `Cc1cc(F)ccc1CNCCn1cccn1`, -1.75%.
As for `COc1cccc(CNCCc2cc(F)cc3c2OCOC3)c1`, the cytotoxicity at 70.5 h is 14.9%.
To `COc1ccc(C2CCCN2S(=O)(=O)N(C)CC(C)C)cc1` (stereo unspecified) belongs -1.91%; to `Cc1ccc(C(=O)N2CCCC2c2nnc3n2CCCCC3)o1` (stereo unspecified), -7.2%.
To `O=C(CN1CCCC1Cn1cncn1)NC(C1CC1)C1CC1` (stereo unspecified) belongs -4.54%; to `Cc1nc(CN2CCC(N(C)Cc3noc(C(C)C)n3)C2)cs1` (stereo unspecified), 33.4%; to `Cc1nn(C)c(C)c1C1COCCN1C(=O)Cc1cccc(F)c1` (stereo unspecified), 12.5%.
On to `O=C(CC(F)(F)F)N1CCc2onc(Cn3cccn3)c2C1`, for which the cytotoxicity at 70.5 h was -13.4%.
Then `O=C(Cc1ccccn1)N1C[C@H]2CCC[C@@]2(COc2ccccn2)C1`, with 6.94%.
For the compound `O=C1CC(c2ccncc2)C2(CCN(Cc3nccs3)CC2)N1` (stereo unspecified), the cytotoxicity at 70.5 h is -7.32%.
On to `O=C1CC(c2ccncc2)C2(CCN(Cc3cccnc3)CC2)N1` (stereo unspecified), for which the cytotoxicity at 70.5 h is -6.24%.
To `CNC(=O)[C@H]1C[C@@H]2CCN(Cc3ccc4c(c3)OCO4)C[C@@H]2O1` belongs -7.08%; to `CN(C)C(=O)[C@H]1C[C@@H]2CCN(Cc3ccncc3)C[C@H]2O1`, -7.62%; to `O=C(C1CCC1)N1CCc2onc(Cn3cccn3)c2C1`, 17.9%.
To `c1cnc(N2CCO[C@H]3[C@H](OCc4cccnc4)CC[C@@H]32)nc1` belongs 13.6%; to `c1ccc(CO[C@H]2CC[C@H]3[C@H]2OCCN3CCN2CCCCC2)nc1`, 20.6%.
To `CCC(CC)NC(=O)c1ccc2nnc(C3CCN(S(C)(=O)=O)C3)n2c1` (stereo unspecified) belongs 6.79%; to `COc1cc(N2C[C@H](OCc3cccnc3)[C@H]3OCCC[C@H]32)ncn1`, 3.36%; to `O=C(NC1CCCC1)N1CCC2(CC1)CC(Oc1cccnc1)CO2` (stereo unspecified), 26.9%.
In the case of `Cc1cccc(N2CCC3(CCCN(C(=O)Cc4cccnc4)C3)C2)n1` (stereo unspecified), the cytotoxicity at 70.5 h stood at 21.3%.
In the case of `Cc1ccc(N2CCC3(CCCN(C(=O)c4cnccn4)C3)C2)nn1` (stereo unspecified), the cytotoxicity at 70.5 h amounted to 1.5%.
Then `Cc1ccc(N2CCC3(CCN(C(=O)c4ccsc4)CC3)C2)nn1`, with 4.86%.
Then `CNC(=O)CC1CC2(CCN(S(C)(=O)=O)CC2)c2ccccc21` (stereo unspecified), with -0.621%.
Take `Cn1cc(CN2CCCC3(CCN3S(C)(=O)=O)C2)cn1` (stereo unspecified): the cytotoxicity at 70.5 h is 7.75%.
Then `CN(C)C(=O)[C@H]1C[C@H]2[C@H](CCN2Cc2ccc3c(c2)OCO3)O1`, with -14.7%; and `Cc1ccc(CN2CC[C@H]3C[C@H](C(=O)N(C)C)O[C@H]3C2)cc1`, with -17.2%; and `O=C(c1ccco1)N1C[C@H]2CCCN(Cc3nccs3)[C@H]2C1`, with -11.3%.
With `O=C(c1cnccn1)N1CCC2(CC1)CCN(Cc1ccccn1)C2=O`, the cytotoxicity at 70.5 h turned out to be 19.9%.
Then `Cc1ccc(C(=O)N2Cc3c(CN(C)C)nn(C)c3C2)cc1C`, with 4.85%; and `Cc1ccc(C(=O)N2Cc3c(CN4CCCCC4)nn(C)c3C2)o1`, with 6.3%.
`O=C1COC2(CCN(C(=O)c3ccoc3)CC2)CN1Cc1ccccn1`: the cytotoxicity at 70.5 h is -0.827%.
`CN(C)C(=O)N1CCC2(CC1)CCN(Cc1ccccn1)C2=O`: the cytotoxicity at 70.5 h is 25.9%.
To `CN(C)C(=O)N1CCC2(CC1)CN(Cc1ccccn1)C(=O)CO2` belongs 24.4%; to `O=C1COC2(CCN(C(=O)C3CC=CC3)CC2)CN1Cc1cccnc1`, 12.1%; to `Cn1nc(CN2CCCCC2)c2c1CN(C(=O)c1cccc(C#N)c1)C2`, 15.7%.
To `Cc1cccc(-c2nnn3c2COC(CNCc2nccs2)C3)c1` (stereo unspecified) belongs -3.21%.
Then `Cc1nc(CN2CCCn3c(nc(Cn4cncn4)cc3=O)C2)cs1`, with 22.5%; and `Cc1oncc1C(=O)NCc1cc(=O)n2c(n1)CN(CC1CC1)CCC2`, with 17.8%; and `CN1CC(=O)N(c2ccccc2)CC12CCN(C(=O)CC1CC1)C2` (stereo unspecified), with 8.17%.
For the compound `Cc1ccc(N2CCC3(CCN(C(=O)c4ccsc4)C3)CC2)nn1`, the cytotoxicity at 70.5 h was -12.9%.
Then `Cc1noc(C)c1CN1CCO[C@H]2CN(C3CCOCC3)C[C@H]21`, with 21.3%.
To `COCCN1CCCn2c(nc(Cn3cncn3)cc2=O)C1` belongs 19.3%.
Then `Cc1ccc(N2CCC3(CCN(C(=O)c4ccnnc4)CC3)CC2)nn1`, with 2.95%; and `O=C(NCc1ccco1)[C@@H]1CCO[C@@H]2CCN(C3CCOCC3)C[C@H]21`, with 4.93%.
Regarding `Cc1cccc(CN2C[C@@H]3COC[C@]3(CNC(=O)c3ccno3)C2)n1`, the cytotoxicity at 70.5 h stood at 7.45%.
With `Cn1nnc2c1C(COCc1cccnc1)CN(Cc1ccoc1)C2` (stereo unspecified), the cytotoxicity at 70.5 h is -16.5%.
To `Cc1nc(CO[C@H]2CN(Cc3ccccn3)[C@@H]3CCCO[C@H]23)cs1` belongs 6.92%; to `Cc1nc(CN2CCO[C@H]3[C@@H](OCc4cccnc4)CC[C@@H]32)cs1`, 4.04%; to `Cc1noc(C)c1CN1CCO[C@H]2CN(Cc3nccn3C)C[C@H]21`, 0.477%.
`c1cnc(N2CCC3(CCN(CC4CCCC4)CC3)C2)nc1`: the cytotoxicity at 70.5 h was -1.07%.
To `Cc1noc(C)c1CN1CCO[C@H]2CN(Cc3cnn(C)c3)C[C@H]21` belongs -4.66%; to `COc1ncccc1C(=O)N1CC[C@]2(C[C@@H](Oc3cccnc3)CO2)C1`, 25.3%.
`Cc1ccc(C(=O)N2CCN3C[C@H](Oc4cccnc4)C[C@H]3C2)cn1`: the cytotoxicity at 70.5 h is 4.6%.
